Measurements from patent US20250275953A1, “VODOBATINIB FOR REDUCING PROGRESSION OF PARKINSON'S DISEASE” (Sun Pharma Advanced Research Company Ltd., priority 2022, published 2025).
Read-outs that look alike come from different tables or passages of the source.

Assay: Plasma pharmacokinetics, 7 once-daily oral doses, healthy volunteers
Assay type: in vivo, human
Details: male, human, plasma, oral
Description: After 28 days of screening, the subjects were studied in sequential cohorts of 6 subjects each. The study was conducted for 17 days. […] After the dose, subjects continued to fast for additional 4 hours, water was allowed ad libitum with the exception of 1 hour prior and 1-hour post dose.
The plasma and CSF samples were analyzed, by validated LC/MS-MS methods. PK analysis was conducted based on PK/PP Population: Cmax, AUC0-t, AUC0-24, AUC0-∞, Tmax, Cavg, CL/F, Cmin, t1/2, Kel, Vd (V/F; Vd/F), and Vss/F. Model-independent plasma PK parameters (Cmax, Tmax, t1/2, AUC0-t, AUC0-24, AUC0-∞, Cavg, CL/F, Vss/F, Vd/F), after the first dose (Day 1) and last dose (Day 7), Cmin on Days 2-7) was listed by subject and summarized by study cohort. In addition to the descriptive statistics listed above, geometric means was reported for the pivotal PK endpoints (CL/F, Vss/F, Vd/F, Cmin, Cavg, AUC0-t, AUC0-24, AUC0-∞, and Cmax). For CSF, PK parameters (Cmax, Tmax, t1/2, AUC0-t, AUC0-24, Cmin, Cavg, CL/F, Vss/F) was listed by subject and summarized by cohort. Ratios of CSF: plasma concentration at each time point was listed by subject and summarized by study cohort.
Forty-one healthy adult male volunteers aged 18 to 45 with body mass indexes (BMI)≥18 to ≤30 Kg/m^2 and total body weight >50 kg (110 lb) were screened in order to enroll 19 subjects with an average age of 34.2 years (range 21.5-45.6 years) into this study Six participants were randomly assigned to the 48 and 192 mg cohorts, and seven participants were assigned to the 384 mg cohort. After an overnight fast, participants received once daily doses of vodobatinib as capsules for 7 days. Serial PK blood samples to measure vodobatinib plasma concentrations were collected at pre-dose and at 0.25, 0.5, 1, 1.5, 2, 2.5, 3, 4, 6, 8, 12, 16 and 24 h post-dose after the first dose on Day 1 and the last dose on day 7. Additional PK samples prior to the morning doses were taken on Days 3-6. On the morning of Day 7, prior to dosing, an indwelling intrathecal catheter was inserted in the lumbar region (L3-L5). Serial CSF samples were collected through the catheter connected via peristaltic pump to a fraction collector. At each designated CSF collection time point, 8 mL of CSF was collected at a flow rate of 0.5 mL/min over a 16-min period at pre-dose, and 0.5, 1.0, 1.5, 2, 2.5, 3, 4, 6, 8, 12 and 24 h post-dose. The first 2 mL of CSF was discarded, and the remaining 6 mL was used for the vodobatinib assay. The occurrence of treatment-emergent adverse events (TEAEs) and serious AEs (SAEs) reported through the completion of study were collected.

## Cc1ccc(C(=O)NNC(=O)c2c(C)cccc2Cl)cc1C#Cc1cnc2ccccc2c1 [N′-(2-chloro-6-methylbenzoyl)-4-methyl-3-[2-(3-quinolyl)ethynyl]-benzohydrazide]
192 mg, Day 1, plasma, healthy volunteers, read-out: AUC0-24 Median
  AUC(0-t): 34700 ng·h/mL
192 mg, Day 1, plasma, healthy volunteers, read-out: AUC0-24 Min, Max
  AUC(0-t): 22400 to 45600 ng·h/mL
192 mg, Day 1, plasma, healthy volunteers, read-out: Cmax AM
  Cmax: 3780 ng/mL
192 mg, Day 1, plasma, healthy volunteers, read-out: Cmax GM
  Cmax: 3550 ng/mL
192 mg, Day 1, plasma, healthy volunteers, read-out: Cmax Median
  Cmax: 3180 ng/mL
192 mg, Day 1, plasma, healthy volunteers, read-out: Cmax Min, Max
  Cmax: 2740 to 7190 ng/mL
192 mg, Day 1, plasma, healthy volunteers, read-out: Tmax Median
  Tmax: 3.5 h
192 mg, Day 1, plasma, healthy volunteers, read-out: Tmax Min, Max
  Tmax: 1.62 to 4 h
192 mg, Day 7, plasma, Healthy Subjects, Table 10, read-out: Cmax Mean
  Cmax: 5380 ng/mL
192 mg, Day 7, plasma, Healthy Subjects, Table 10, read-out: Tmax median (range)
  Tmax: 4 h
192 mg, Day 7, plasma, Healthy Subjects, read-out: AUC0-24 Mean
  AUC(0-t): 44100 ng·h/mL
192 mg, Day 7, plasma, healthy volunteers, read-out: AUC0-24 AM
  AUC(0-t): 44100 ng·h/mL
192 mg, Day 7, plasma, healthy volunteers, read-out: AUC0-24 GM
  AUC(0-t): 39100 ng·h/mL
192 mg, Day 7, plasma, healthy volunteers, read-out: AUC0-24 Median
  AUC(0-t): 40100 ng·h/mL
192 mg, Day 7, plasma, healthy volunteers, read-out: AUC0-24 Min, Max
  AUC(0-t): 20700 to 91500 ng·h/mL
192 mg, Day 7, plasma, healthy volunteers, read-out: Cmax AM
  Cmax: 5380 ng/mL
192 mg, Day 7, plasma, healthy volunteers, read-out: Cmax GM
  Cmax: 5020 ng/mL
192 mg, Day 7, plasma, healthy volunteers, read-out: Cmax Median
  Cmax: 4690 ng/mL
192 mg, Day 7, plasma, healthy volunteers, read-out: Cmax Min, Max
  Cmax: 3120 to 10100 ng/mL
192 mg, Day 7, plasma, healthy volunteers, read-out: Tmax Median
  Tmax: 4 h
192 mg, Day 7, plasma, healthy volunteers, read-out: Tmax Min, Max
  Tmax: 4.01 to 4.08 h
384 mg, Day 1, plasma, Healthy Subjects, Table 10, read-out: Cmax Mean
  Cmax: 6630 ng/mL
384 mg, Day 1, plasma, Healthy Subjects, Table 10, read-out: Tmax median
  Tmax: 4 h
384 mg, Day 1, plasma, Healthy Subjects, read-out: AUC0-24 Mean
  AUC(0-t): 47600 ng·h/mL
384 mg, Day 1, plasma, healthy volunteers, read-out: AUC0-24 AM
  AUC(0-t): 47600 ng·h/mL
384 mg, Day 1, plasma, healthy volunteers, read-out: AUC0-24 GM
  AUC(0-t): 35500 ng·h/mL
384 mg, Day 1, plasma, healthy volunteers, read-out: AUC0-24 Median
  AUC(0-t): 41900 ng·h/mL
384 mg, Day 1, plasma, healthy volunteers, read-out: AUC0-24 Min, Max
  AUC(0-t): 6640 to 105000 ng·h/mL
384 mg, Day 1, plasma, healthy volunteers, read-out: Cmax AM
  Cmax: 6630 ng/mL
384 mg, Day 1, plasma, healthy volunteers, read-out: Cmax GM
  Cmax: 5390 ng/mL
384 mg, Day 1, plasma, healthy volunteers, read-out: Cmax Median
  Cmax: 5580 ng/mL
384 mg, Day 1, plasma, healthy volunteers, read-out: Cmax Min, Max
  Cmax: 1490 to 13700 ng/mL
384 mg, Day 1, plasma, healthy volunteers, read-out: Tmax Median
  Tmax: 4 h
384 mg, Day 1, plasma, healthy volunteers, read-out: Tmax Min, Max
  Tmax: 1.5 to 6 h
384 mg, Day 7, plasma, Healthy Subjects, Table 10, read-out: Cmax Mean
  Cmax: 7850 ng/mL
384 mg, Day 7, plasma, Healthy Subjects, Table 10, read-out: Tmax median (range)
  Tmax: 3.5 h
384 mg, Day 7, plasma, Healthy Subjects, read-out: AUC0-24 Mean
  AUC(0-t): 54900 ng·h/mL
384 mg, Day 7, plasma, healthy volunteers, read-out: AUC0-24 AM
  AUC(0-t): 54900 ng·h/mL
384 mg, Day 7, plasma, healthy volunteers, read-out: AUC0-24 GM
  AUC(0-t): 42100 ng·h/mL
384 mg, Day 7, plasma, healthy volunteers, read-out: AUC0-24 Median
  AUC(0-t): 50000 ng·h/mL
384 mg, Day 7, plasma, healthy volunteers, read-out: AUC0-24 Min, Max
  AUC(0-t): 11500 to 125000 ng·h/mL
384 mg, Day 7, plasma, healthy volunteers, read-out: Cmax AM
  Cmax: 7880 ng/mL
384 mg, Day 7, plasma, healthy volunteers, read-out: Cmax GM
  Cmax: 6650 ng/mL
384 mg, Day 7, plasma, healthy volunteers, read-out: Cmax Median
  Cmax: 6500 ng/mL
384 mg, Day 7, plasma, healthy volunteers, read-out: Cmax Min, Max
  Cmax: 2870 to 17900 ng/mL
384 mg, Day 7, plasma, healthy volunteers, read-out: Tmax Median
  Tmax: 3.5 h
384 mg, Day 7, plasma, healthy volunteers, read-out: Tmax Min, Max
  Tmax: 2.52 to 4.03 h
